Assay results as given in paper PMC9048745, “Physicochemical investigation of a novel curcumin diethyl γ-aminobutyrate, a carbamate ester prodrug of curcumin with enhanced anti-neuroinflammatory activity” (PLoS ONE, 2022).
Like-named read-outs stand apart in the source and are kept apart here.

How the values were obtained:
[1] = system: NO production in LPS-stimulated BV-2 microglial cells; assay: Nitric oxide assay (Griess reagent); assay type: cell-based, murine; conditions: 10 μM, 12 h pre-incubation, then 1 μg/mL LPS 24 h; compared with curcumin
Description: (§1) BV-2 microglial cells were plated in a 24-well plate at a density of 2 × 10^5 per well for 24 h. The cells were pre-incubated for 12 h with curcumin (10 μM), CUR-2GE (10 μM), medium (DMEM), or a vehicle (0.5% DMSO). The cells were then induced with 1 μg/mL LPS for 24 h. The culture medium samples were collected and analyzed for nitric oxide (NO) and cytokines (TNF- and IL-6) using NO and enzyme-linked immunoassay (ELISA) assays, respectively.
Nitric oxide (NO) production was determined by measuring nitrite, the NO metabolite, using Griess reagent. Briefly, the culture medium (100 μL) was added with 1% sulfanilamide (50 μL) and incubated for 5 min. Then, a solution of 0.1% N-(1-naphthyl)ethylenediamine dihydrochloride (50 μL) was added and incubated for 5 min. The absorbance was measured at 520 nm using the microplate reader, and the nitrite concentration was calculated against a calibration curve using NaNO₂ as a standard.

[2] = system: TNF-α release in LPS-stimulated BV-2 microglial cells; assay: TNF-α ELISA; assay type: cell-based, murine; conditions: 10 μM, 12 h pre-incubation, then 1 μg/mL LPS 24 h; compared with curcumin
Description: as §1
(§2) Quantification of TNF-α and IL-6 was performed using commercially available ELISA kits according to the manufacturer’s protocol (BioLegend, San Diego, CA, USA). The absorbance was measured at 450 nm using the microplate reader, and the amount of TNF-α and IL-6 was determined against their corresponding standard curves of TNF-α and IL-6.

[3] = system: IL-6 release in LPS-stimulated BV-2 microglial cells; assay: IL-6 ELISA; assay type: cell-based, murine; conditions: 10 μM, 12 h pre-incubation, then 1 μg/mL LPS 24 h; compared with curcumin
Description: as §1, §2

[4] = Release study in human plasma at 37°C; assay type: in vitro ADME
Description: The amount of curcumin released from CUR-2GE in human plasma was determined at 37°C at various time points. A stock solution of CUR-2GE (100 μg/mL) in the diluent was prepared and diluted with pre-incubated human plasma at 37°C for 5 min to obtain the final concentration of 5 μg/mL. The mixture was incubated at 37°C for 5, 10, 20, 30 and 60 min and each aliquot (300 μL) was added with 300 μL of acetonitrile to stop the reaction and further centrifugated at 4°C at 14,000 rpm for 30 min. The concentration of CUR-2GE in the supernatant was analyzed using UPLC [19, 26]. Experiments were carried out in triplicates. The initial time point (0 min) was prepared by adding 300 μL acetonitrile to the pre-incubated human plasma. The percent peak area of CUR-2GE and its hydrolytic products was plotted against incubation time. The k and t1/2 values were determined using the linear pseudo-first-order model.

[5] = Chemical stability in aqueous buffer solutions at 37°C; assay type: physicochemical; conditions: for half-life at 10 μg/mL: read-out: t1/2, hydrolysis (converted)
Description: Chemical stability of CUR-2GE was performed at 37°C in aqueous buffer solutions at pH 1.2, 4.5, 6.8 and 7.4. CUR-2GE (1 mg) was dissolved in DMSO (1 mL) and adjusted with the diluent in a 5-mL volumetric flask to obtain a stock solution at 200 μg/mL. The stock solution was diluted with a pre-incubated buffer in a vial at 37°C at an initial concentration of 10 μg/mL [26]. Each sample was incubated at 37°C at appropriate intervals and analyzed using UPLC. The experiment was performed in triplicate. The hydrolytic products were also identified by comparing chromatographic retention times to curcumin and CUR-1GE. Kinetic profiles of CUR-2GE and its hydrolytic products, including curcumin and CUR-1GE, were determined by plotting percent peak area vs. incubation time. The linear slope of the natural logarithm of concentrations against time was used to calculate the degradation rate (k) and half-life (t1/2) using the linear pseudo-first-order model (see S1 Appendix). […]
The linear slopes of the natural logarithm of a concentration against time were used to calculate the degradation rate (k) for the pseudo-first-order (Eq. 5).
Ln [At] = Ln [A0] - kt (5)
Where A0 is the CUR-2GE concentration at time 0, At is the concentration of CUR-2GE at time t, and k is the degradation rate constant of CUR-2GE.
The half-lives (t1/2) of CUR-2GE were calculated by Eq. 6: […]

[6] = system: BV-2 microglial cells; assay: In vitro cellular uptake (fluorescence microscopy); assay type: cell-based, murine; conditions: BV-2 cells, 4-h incubation, 20 μM and 100 μM, compared with curcumin
Description: BV-2 microglial cells were plated in a 96-well plate (Costar, NY, USA) at a density of 10,000 cells/well for 24 h. The cells were incubated in DMEM media without phenol red for 4 h in the presence of curcumin and CUR-2GE at concentrations of 20 μM and 100 μM. Then, the sample was washed with PBS and the fluorescence intensity was measured using a fluorescence microscope (Olympus IX51 inverted microscope, Tokyo, Japan).

[7] = system: BV-2 microglial cells; assay: Cytotoxicity (MTT assay); assay type: cell-based, murine; conditions: BV-2 cells, 24 h
Description: BV-2 microglial cells were cultured in DMEM supplemented with 10% fetal bovine serum, 2 mM L-glutamine, 1% penicillin/streptomycin (100 units/mL penicillin and 100 μg/mL streptomycin) at 37°C in 5% CO2. BV-2 microglial cells were plated in a 24-well plate at a density of 2 × 10^5 cells/well for 24 h. Various concentrations at 0, 1.25, 2.5, 5, 10, or 20 μM of curcumin or CUR-2GE were determined for a non-toxic concentration. After 24 h, cell viability was assessed by an MTT assay. The media was removed and replaced with an MTT solution in PBS (0.5 mg/mL). After 3-h incubation, the MTT solution was discarded, and formazan crystals formed after the reaction was dissolved in DMSO. The absorbance was then read at 540 nm using a microplate reader (CLARIOstar®, BMG Labtech, Ortenberg, Germany). The percentage of cell viability was expressed relative to the control cells. In addition, the cell viability of BV-2 microglial cells treated with LPS and a combination of LPS and the test compounds was also determined.

CCOC(=O)CCCNC(=O)Oc1ccc(/C=C/C(=O)/C=C(O)/C=C/c2ccc(OC(=O)NCCCC(=O)OCC)c(OC)c2)cc1OC [CUR-2GE, Curcumin diethyl γ-aminobutyrate]
inhibition of NO production [1]: to a greater extent than curcumin
inhibition of TNF-α release [2]: to a greater extent than curcumin
inhibition of IL-6 release [3]: to a greater extent than curcumin
rate in human plasma lower than that in buffer pH 7.4 [4]: approximately 8.7 fold
k, pseudo-first-order hydrolysis ([4]; human plasma): 1.76 ± 0.30 h⁻¹
time for sequential conversion to CUR-1GE and curcumin in plasma ([4]; human plasma): ≤ 1 h
half-life at 5 μg/mL ([4]; human plasma, read-out: t1/2, hydrolysis (converted)): 24 ± 4.8 min
hydrolysis rate in buffer pH 7.4 higher than pH 1.2 ([5]; 37°C): 262 folds
hydrolysis rate in buffer pH 7.4 higher than pH 4.5 ([5]; 37°C): 778 folds
hydrolysis rate in buffer pH 7.4 higher than pH 6.8 ([5]; 37°C): 1.94 folds
half-life at 10 μg/mL ([5]; aqueous buffer pH 1.2, buffer pH 1.2, 37°C): 11.9 ± 0.14 h
half-life at 10 μg/mL ([5]; aqueous buffer pH 4.5, buffer pH 4.5, 37°C): 36.4 ± 8.53 h
half-life at 10 μg/mL ([5]; aqueous buffer pH 6.8, buffer pH 6.8, 37°C): 0.09 ± 0.01 h
half-life at 10 μg/mL ([5]; aqueous buffer pH 7.4, buffer pH 7.4, 37°C): 0.045 ± 0.002 h
k, pseudo-first-order hydrolysis ([5]; buffer pH 1.2, 37°C): 0.0583 ± 0.0007 h⁻¹
k, pseudo-first-order hydrolysis ([5]; buffer pH 4.5, 37°C): 0.020 ± 0.004 h⁻¹
k, pseudo-first-order hydrolysis ([5]; buffer pH 6.8, 37°C): 7.89 ± 0.54 h⁻¹
k, pseudo-first-order hydrolysis ([5]; buffer pH 7.4, 37°C): 15.31 ± 0.70 h⁻¹
cellular uptake (fluorescence intensity) [6]: higher fluorescence intensity than curcumin
non-toxic concentrations (no cytotoxicity) [7]: ≤ 10 µM
